Assay results published in patent EP0932613B1, “BLOCKING EXPRESSION OF VIRULENCE FACTORS IN S. AUREUS” (NEW YORK UNIVERSITY, priority 1996, dated 2005).
Where a SMILES comes first, the peptide text is derived from it. Bridges are numbered along the chain shown (N, C = ends).

What was measured:
[1] = system: RNAIII transcription; test: Effect of S. lugdunensis pheromone on RNAIII transcription of various S. aureus strains (Northern blot); type: cell-based; details: 37°C for 30 minutes; strains grown to 60 Klett units for inhibition assays; Figures 4A and 4B
Experimental: The purified S. lugdunensis pheromone was then analyzed for its ability activate and inhibit RNAIII transcription of various S. aureus strains. S. aureus strains were grown to 30 Klett units (for activation assays) and to 60 Klett units (for inhibition assays). The purified S . lugdunensis pheromone was added and the mixtures were incubated at 37°C for 30 minutes. Whole cell lysates were prepared from these cultures and analyzed by Northern blot hybridization using a RN6390B RNAIII-specific probe.

[2] = system: RNAIII transcription; test: RNAIII transcription activation/inhibition assay (Ji et al. 1995), strain RN6607; type: cell-based; details: purified peptide; S. aureus strain RN6607; Figure 3
Experimental: (§1) The purified activator peptide was then analyzed for its ability activate and inhibit RNAIII transcription of S. aureus strains RN6390B, RN6607 and RN8463, as described in Ji, G., et al. PNAS USA 92:12055-12059 (1995).
(§2) The purified peptide were then analyzed for their ability activate and inhibit RNAIII transcription of S. aureus strains RN6390B, RN6607 and RN8463, as described in Ji, G., et al. PNAS USA 92:12055-12059 (1995).

[3] = system: agr locus; details: PNAS 92:12055-12059 (1995); cited from earlier work
[4] = system: RNAIII transcription; test: RNAIII transcription activation/inhibition assay (Ji et al. 1995), strain RN8463; type: cell-based; details: purified peptide; S. aureus strain RN8463; Figure 3
Experimental: as §1, §2

[5] = system: RNAIII transcription; test: RNAIII transcription activation/inhibition assay (Ji et al. 1995), strain RN6390B; type: cell-based; details: purified peptide; S. aureus strain RN6390B; Figure 3
Experimental: as §1, §2

CC[C@H](C)[C@H](NC(=O)[C@@H](N)CC(=O)O)C(=O)N[C@H]1CSC(=O)[C@H](Cc2ccccc2)NC(=O)[C@H](Cc2ccc(O)cc2)NC(=O)[C@H](C)NC(=O)[C@H](CC(N)=O)NC1=O [S. lugdunensis pheromone, Asp-Ile-Cys-Asn-Ala-Tyr-Phe] (H-DICNAYF; thioester 3-C)
S. aureus strains tested in which the agr response is inhibited [1]: 5 of 6

CC[C@H](C)[C@@H]1NC(=O)[C@H](Cc2ccccc2)NC(=O)[C@H](CC(=O)O)NC(=O)[C@@H](NC(=O)[C@@H](NC(=O)[C@H](CO)NC(=O)[C@@H](N)Cc2ccc(O)cc2)[C@@H](C)O)CSC(=O)[C@H](CCSC)NC1=O [activator peptide, Tyr-Ser-Thr-Cys-Asp-Phe-Ile-Met] (H-YSTCDFIM; thioester 4-C)
effect on RNAIII transcription [2]: inhibitor effect
expression of the agr locus [3]: activate
effect on RNAIII transcription [4]: inhibitor effect
effect on RNAIII transcription [5]: activator effect

CC(C)C[C@@H]1NC(=O)[C@H](CO)NC(=O)[C@H](CO)NC(=O)[C@@H](NC(=O)[C@H](C)NC(=O)[C@H](CC(N)=O)NC(=O)[C@@H](NC(=O)CN)C(C)C)CSC(=O)[C@H](Cc2ccccc2)NC1=O [peptide from RN6607, Gly-Val-Asn-Ala-Cys-Ser-Ser-Leu-Phe] (H-GVNACSSLF; thioester 5-C)
effect on RNAIII transcription [2]: activator effect
effect on RNAIII transcription [4]: inhibitor effect
effect on RNAIII transcription [5]: inhibitor effect

CC[C@H](C)[C@H](NC(=O)[C@@H](N)Cc1ccc(O)cc1)C(=O)N[C@@H](CC(N)=O)C(=O)N[C@H]1CSC(=O)[C@H](CC(C)C)NC(=O)[C@H](CC(C)C)NC(=O)[C@H](Cc2ccccc2)NC(=O)[C@H](CC(=O)O)NC1=O [peptide from RN8463, Tyr-Ile-Asn-Cys-Asp-Phe-Leu-Leu] (H-YINCDFLL; thioester 4-C)
effect on RNAIII transcription [2]: inhibitor effect
effect on RNAIII transcription [4]: activator effect
effect on RNAIII transcription [5]: inhibitor effect
